In patent publication US11266717B2, “Diagnosis, prevention, and/or treatment of autoimmune diseases” (priority 2016, dated 2022):
Non-standard residues stand in square brackets, D forms with d. Residues, ends and D or L forms follow the SMILES beside them. *: point of attachment. Dolaproine = CO[C@@H]([C@@H]1CCCN1)[C@@H](C)C(=O)O; Dil = CC[C@H](C)[C@H](NC)[C@@H](CC(=O)O)OC; X1 = C[C@@H](N*)[C@@H](O)c1ccccc1; NMeV = CN[C@H](C(=O)O)C(C)C

Experiments:
[1] = test system: PLA2R-epitope specific memory B cells isolated from PMN patients; test: Elimination of PLA2R-epitope specific memory B cells: 24 h preincubation, then PLA2R-epitope-FITC staining; format: cell-based, human; settings: preincubation 24 h; then PLA2R-epitope-FITC 1 h at 4° C.; FIG. 25
Description: (§1) In some embodiments, the efficacy of an EDC may be tested in vitro using patient samples prior to administering the EDC to patients. For example, the efficacy of an EDC is tested on isolated B cells from patient peripheral blood mononuclear cells (PBMCs) (FIG. 25; Example 6, and FIG. 30; Example 9). An EDC comprising a fluorophore (e.g., FITC) is used detect the presence of autoantibody-producing B cells in patient samples (left panels in FIG. 25 (MN patient samples) and FIG. 30 (Pemphigus vulgaris patient samples) prior to exposing the samples to an EDC comprising a cytotoxic drug. The patient samples are then treated with an EDC comprising a cytotoxic drug (e.g., MMAE). The EDC comprising the fluorophore is then used determine the efficacy of the EDC comprising a cytotoxic drug of autoantibody-producing B cells in patient samples (middle panels in FIG. 25 (MN patient samples) and FIG. 30 (Pemphigus vulgaris patient samples)).
The efficacy of the PLA2R-epitope-MMAE on eliminating the PLA2R-epitope specific memory B cells isolated from PMN patients was assessed. MMAE is a potent cytotoxic agent that blocks tubulin polymerization causing cell death. MMAE has been used to develop an antibody-drug conjugate, Brentuximab vedotin (trade name Adcetris) for lymphoma treatment, and was approved by FDA in 2011. […]

[2] = test system: Dsg1 and Dsg3-epitope specific memory B cells isolated from mucocutaneous PV patients; test: Elimination of Dsg1 and Dsg3-epitope specific memory B cells: 24 h preincubation, then Dsg1 and Dsg3-epitope-FITC staining; format: cell-based, human; settings: preincubation 24 h; then Dsg1 and Dsg3-epitope-FITC 1 h at 4° C.; FIG. 30
Description: as §1
The efficacy of the Dsg1 and Dsg3 epitope conjugated to MMAE to eliminate Dsg1 and Dsg3-epitope specific memory B cells, respectively, isolated from the mucocutaneous PV patients was assessed. Total B cells isolated from patient peripheral blood were cultured overnight in RPMI medium and then split equally into two wells on a 12 well cell culture plate (2 ml/per well). […]

[3] = test system: anti-PLA2R autoantibodies; test: Western blot of PLA2R-epitope proteins probed with patient serum containing anti-PLA2R autoantibodies; format: binding, human; settings: SDS-PAGE under non-reducing condition
From the text: (§2) The construct was then expressed in the HEK293 cells and the epitope protein was purified using nickel and gel filtration columns followed with TEV cleavage to remove the His-tag. The protein was then coupled with a fluorescent agent (eg. FITC) or a cytotoxic reagent (eg. Monomethyl auristatin E (MMAE)).
In a separate experiment (FIG. 23; bottom right), equal amount of epitope, FITC conjugated epitope and MMAE conjugated epitope proteins were resolved on a SDS-PAGE under the non-reducing condition, transferred to a membrane, and probed by a patient serum containing anti-PLA2R autoantibodies. The unconjugated and the conjugated PLA2R-epitope proteins were resolved on a 4-20% SDS-PAGE under the non-reducing condition and probed with a patient serum containing anti-PLA2R autoantibodies (FIG. 23, bottom right).
as §2, with “(MMAE)) (FIG. 23).” for “(MMAE)).”

**Q.** For `CC[C@H](C)[C@@H]([C@@H](CC(=O)N1CCC[C@H]1[C@H](OC)[C@@H](C)C(=O)N[C@H](C)[C@@H](O)c1ccccc1)OC)N(C)C(=O)[C@@H](NC(=O)[C@@H](NC)C(C)C)C(C)C` [MMAE, Monomethyl auristatin E, reference compound] (H-[NMeV]V[Dil][Dolaproine]-X1), which “staining of B cells with PLA2R-epitope-FITC after preincubation (elimination of PLA2R-epitope specific memory B cells)” value [1] is on record?
**A.** a number of B cells being stained

**Q.** What about the “staining of B cells with Dsg1 and Dsg3-epitope-FITC after preincubation (elimination of Dsg1 and Dsg3-epitope specific memory B cells)” value [2] of the same molecule?
**A.** a number of B cells being stained

**Q.** How did the “reaction/binding with anti-PLA2R autoantibodies (Western blot)” value (“reaction/binding” below) [3] turn out when “PLA2R-epitope: PLA2R CysR, FnII and CTLD1 domains with free cysteine engineered into the C-terminal tail, expressed in HEK293 cells, about 37 kDa” was run?
**A.** strongly reacted

**Q.** And the “reaction/binding” value ([3]; listed as modified PLA2R-epitope)?
**A.** strongly reacted

**Q.** What about the “reaction/binding” value ([3]; listed as unconjugated PLA2R-epitope) of the same molecule?
**A.** strongly
